# Laboratory results taken from US20180296456A1, “Decapeptide-12 Modulation of Sirtuin Gene Expression in Epidermal Keratinocyte Progenitors” (Escape Therapeutics, Inc., priority 2017, published 2018).
# Experiments:
# Format in all cases: cell-based
# [1] = system: human epidermal progenitors; test: Trypan blue dye exclusion cytotoxicity assay, 72 h, epidermal progenitors; settings: human, 72 h
# Experimental: Cellular toxicity was measured using a trypan blue dye exclusion assay. Cells were cultured in 6-well plates at a density of 4×10^5 cells/well. Each well received a different concentration of decapeptide-12 or oxyresveratrol (0, 3, 10, 30, 100, 300, and 1000 μM). Plates were incubated at 37 degrees Celsius in a humidified 5 percent CO2 chamber. After 72 h, an aliquot was taken and cells counted using a hemacytometer. Cytotoxicity was measured according to the following formula: [1−(# of cells in control−# of live cells in test sample)/# of cells in control]×100 percent.
# [2] = system: SIRT1; test: SIRT1 transcription, semi-quantitative RT-PCR in human epidermal progenitors; settings: 72 h
# Experimental: (§1) Human neonatal epidermal progenitors (Thermo Fisher Scientific, NY) were seeded in 6-well plates at a density of 2×10^5 cells/well. Each well received 2 ml of Epilife media containing 60 μM calcium chloride (Thermo Fisher Scientific, NY). Plates were incubated in a humidified chamber at 37 degrees Celsius and 5 percent CO2. Twenty-four hours later, cells were treated with various concentrations of oxyresveratrol or decapeptide-12 dissolved in PBS containing 5 percent DMSO. Control wells received vehicle only (5 percent DMSO and PBS). Final concentration of DMSO in each well was 0.05 percent.
# (§2) After a 72 hour incubation period, cells were trypsinized and total RNA extracted, using RNeasy kit (Qiagen, Valencia, Calif.) according to the manufacturer's protocol.
# (§3) RNA concentration was determined using nanodrop (Thermo fisher scientific, NY). Two μg of total RNA were used to synthesize cDNA using oligo dT primers and TaqMan reverse transcription reagents (Thermo fisher scientific, NY). The reaction was carried out in DNA Engine Peltier Thermal Cycler (Bio-Rad, Hercules, Calif.). The annealing temperature was 25 degrees Celsius for 10 minutes, followed by first strand synthesis at 48 degrees Celsius for 1 hour, and heat inactivation at 95 degrees Celsius for 5 minutes.
# (§4) The SIRT1-7 primers (table 1) were designed using Primer3. The semi-quantitative PCR reactions were performed on a DNA Engine Peltier Thermo Cycler (Bio-Rad, Hercules, Calif.). PCR was carried under the following conditions: denaturation at 94 degrees Celsius for 2 minutes and primer extension at 54 degrees Celsius for 30 seconds in 34 cycles for SIRT 1-7 and the housekeeping gene 18S.
# (§5) Samples were run and resolved on a 1.5 percent agarose gel containing 0.5 μg/ml of ethidium bromide and imaged using the FluorChem HD2 Imaging System (Protein simple, San Jose, Calif.). Densitometry analysis was carried out using the AlphaEase FC software (Protein simple, San Jose, Calif.). Intensity ratios were calculated as the intensity value for each gene divided by the intensity value of the internal control gene 18S.
# (§6) The effect of the decapeptides P4, P4A, P4B, and P4C upon the transcription levels of sirtuins 1-7 was evaluated. Table 4 summarizes transcription levels for all four decapeptides with the corresponding genes, at tested concentrations of: 10, 30, 50, 100, and 300 (all in μM).
# [3] = system: SIRT6; test: SIRT6 transcription, semi-quantitative RT-PCR in human epidermal progenitors; settings: 72 h
# Experimental: as §1, §2, §3, §4, §5, §6
# [4] = system: human epidermal progenitors; test: in vitro; settings: 72 h
# Experimental: Proliferation rates were determined using a TACS® MTT Cell Proliferation Kit (R&D systems, Minneapolis, Minn.). Cells were seeded at 2.5×10^4/well in 96-well plates in a humidified atmosphere with 5 percent CO2 at 37 degrees Celsius. Twenty-four hours later, decapeptide-12 or oxyresveratrol were added to the corresponding wells at varying concentrations (0, 3, 10, 30, 100, 300, and 1000 μM), and cultures were then incubated for 72 hours. The remainder of the procedure was performed following the manufacturer's protocol.
# Proliferation rates for three human cell lines (epidermal progenitors, melanoblasts, and fibroblasts) were determined using a TACS® MTT Cell Proliferation Kit. Cells were seeded at 2.5×10^4/well in 96-well plates in a humidified atmosphere with 5 percent CO2 at 37 degrees Celsius. Twenty-four hours later, the decapeptides were added to the corresponding wells at varying concentrations and incubated for 72 hours. The remainder of the procedure was performed following the manufacturer's protocol.
# [5] = system: SIRT5; test: SIRT5 transcription, semi-quantitative RT-PCR in human epidermal progenitors; settings: 72 h
# Experimental: as §1, §2, §3, §4, §5, §6
# [6] = system: SIRT4; test: SIRT4 transcription, semi-quantitative RT-PCR in human epidermal progenitors; settings: 72 h
# Experimental: as §1, §2, §3, §4, §5, §6
# [7] = system: SIRT7; test: SIRT7 transcription, semi-quantitative RT-PCR in human epidermal progenitors; settings: 72 h
# Experimental: as §1, §2, §3, §4, §5, §6
# [8] = system: SIRT2; test: SIRT2 transcription, semi-quantitative RT-PCR in human epidermal progenitors; settings: 72 h
# Experimental: as §1, §2, §3, §4, §5, §6
# [9] = system: SIRT3; test: SIRT3 transcription, semi-quantitative RT-PCR in human epidermal progenitors; settings: 72 h
# Experimental: as §1, §2, §3, §4, §5, §6
smiles,measurement,setting,value
"Oc1cc(O)cc(/C=C/c2ccc(O)cc2O)c1 [oxyresveratrol, Oxyresveratrol, reference compound]",cell death,[1]; 100 μM,6±1%
same,cell death,[1]; 1 mM,16±2%
same,SIRT1 transcription increase relative to control,[2]; 3 μM,8.7 ± 1%
same,SIRT1 transcription increase relative to control,[2]; 10 μM,45 ± 7.7%
same,SIRT1 transcription increase relative to control,[2]; 30 μM,125±9%
same,SIRT1 transcription increase relative to control,"[2]; 30 μM, listed as Oxy",124.5 ± 8.6%
same,SIRT1 transcription increase relative to control,[2]; 50 μM,166 ± 14.5%
same,SIRT1 transcription increase relative to control,[2]; 100 μM,187 ± 16.6%
same,SIRT1 transcription increase relative to control,[2]; 300 μM,187 ± 15.4%
same,SIRT1 transcription increase relative to control,[2]; 500 μM,176 ± 10%^
same,SIRT1 transcription increase relative to control,[2]; 1000 μM,175 ± 9%
same,SIRT6 transcription increase relative to control,[3]; 3 μM,6.1 ± 1%
same,SIRT6 transcription increase relative to control,[3]; 10 μM,34 ± 5.5%
same,SIRT6 transcription increase relative to control,[3]; 30 μM,73±8%
same,SIRT6 transcription increase relative to control,"[3]; 30 μM, listed as Oxy",73 ± 8.1%
same,SIRT6 transcription increase relative to control,[3]; 50 μM,81.3 ± 8.1%
same,SIRT6 transcription increase relative to control,[3]; 100 μM,82.4 ± 8.4%
same,SIRT6 transcription increase relative to control,[3]; 300 μM,87.4 ± 9.3%
same,SIRT6 transcription increase relative to control,[3]; 500 μM,81.2 ± 12.4%
same,SIRT6 transcription increase relative to control,[3]; 1000 μM,75 ± 15.1%
same,reduced cell proliferation,[4]; 300 μM,5±1%
same,reduced cell proliferation,[4]; 1 mM,12±2%
same,SIRT5 transcription increase relative to control,[5]; 3 μM,7.1 ± 1%
same,SIRT5 transcription increase relative to control,[5]; 10 μM,12.3 ± 3%^
same,SIRT5 transcription increase relative to control,[5]; 30 μM,45.1 ± 4.3%
same,SIRT5 transcription increase relative to control,[5]; 50 μM,46 ± 4%
same,SIRT5 transcription increase relative to control,[5]; 100 μM,36.1 ± 6.7%
same,SIRT5 transcription increase relative to control,[5]; 300 μM,33.4 ± 7.1%
same,SIRT5 transcription increase relative to control,[5]; 500 μM,35.1 ± 8.1%
same,SIRT5 transcription increase relative to control,[5]; 1000 μM,37 ± 6.8%
same,SIRT4 transcription increase relative to control,[6]; 3 μM,8.1 ± 1%
same,SIRT4 transcription increase relative to control,[6]; 10 μM,12.4 ± 2.1%
same,SIRT4 transcription increase relative to control,[6]; 30 μM,49 ± 6.7%
same,SIRT4 transcription increase relative to control,[6]; 50 μM,52.1 ± 6.6%
same,SIRT4 transcription increase relative to control,[6]; 100 μM,64.1 ± 7.4%
same,SIRT4 transcription increase relative to control,[6]; 300 μM,67 ± 8.7%
same,SIRT4 transcription increase relative to control,[6]; 500 μM,61.2 ± 8.8%
same,SIRT4 transcription increase relative to control,[6]; 1000 μM,71.3 ± 9.2%
same,SIRT7 transcription increase relative to control,[7]; 3 μM,6.3 ± 1%
same,SIRT7 transcription increase relative to control,[7]; 10 μM,65 ± 2.9%
same,SIRT7 transcription increase relative to control,[7]; 30 μM,95±7%
same,SIRT7 transcription increase relative to control,"[7]; 30 μM, listed as Oxy",95 ± 6.7%
same,SIRT7 transcription increase relative to control,[7]; 50 μM,114 ± 8.1%
same,SIRT7 transcription increase relative to control,[7]; 100 μM,132 ± 7.6%
same,SIRT7 transcription increase relative to control,[7]; 300 μM,168 ± 4.8%
same,SIRT7 transcription increase relative to control,[7]; 500 μM,177 ± 6.6%
same,SIRT7 transcription increase relative to control,[7]; 1000 μM,165 ± 5.1%
same,SIRT2 transcription increase relative to control,[8]; 3 μM,7.9 ± 2%
same,SIRT2 transcription increase relative to control,[8]; 10 μM,14.9 ± 1.9%
same,SIRT2 transcription increase relative to control,[8]; 30 μM,43.1 ± 2.4%
same,SIRT2 transcription increase relative to control,[8]; 50 μM,56.3 ± 7.7%
same,SIRT2 transcription increase relative to control,[8]; 100 μM,41.2 ± 8.1%
same,SIRT2 transcription increase relative to control,[8]; 300 μM,39 ± 9.3%
same,SIRT2 transcription increase relative to control,[8]; 500 μM,33.1 ± 12.4%
same,SIRT2 transcription increase relative to control,[8]; 1000 μM,31.2 ± 12.3%
same,SIRT3 transcription increase relative to control,[9]; 3 μM,10 ± 3%
same,SIRT3 transcription increase relative to control,[9]; 10 μM,52.7 ± 5.1%
same,SIRT3 transcription increase relative to control,[9]; 30 μM,133±5%
same,SIRT3 transcription increase relative to control,"[9]; 30 μM, listed as Oxy",133 ± 4.8%
same,SIRT3 transcription increase relative to control,[9]; 50 μM,156 ± 9.2%
same,SIRT3 transcription increase relative to control,[9]; 100 μM,148 ± 7.3%
same,SIRT3 transcription increase relative to control,[9]; 300 μM,152.2 ± 9%
same,SIRT3 transcription increase relative to control,[9]; 500 μM,151 ± 8.1%
same,SIRT3 transcription increase relative to control,[9]; 1000 μM,151 ± 7.4%
